Experimental data as given in ChEMBL document CHEMBL1150078, “A Novel Class of Non-Peptidic Endothelin Antagonists Isolated from the Medicinal Herb Phyllanthus niruri” (J Nat Prod, 1995).
Activity calls are given as the source filed them. The calls are words filed in the database; no cut-off is given here.

Key:
Type in all cases: cell-based
[1] = target: T1, Endothelin-1 receptor (Homo sapiens, UniProt P25101); experiment: Displacement of [125I]endothelin-1 from human recombinant ETA receptor expressed in CHO cells
T1 sequence (P25101 whole entry): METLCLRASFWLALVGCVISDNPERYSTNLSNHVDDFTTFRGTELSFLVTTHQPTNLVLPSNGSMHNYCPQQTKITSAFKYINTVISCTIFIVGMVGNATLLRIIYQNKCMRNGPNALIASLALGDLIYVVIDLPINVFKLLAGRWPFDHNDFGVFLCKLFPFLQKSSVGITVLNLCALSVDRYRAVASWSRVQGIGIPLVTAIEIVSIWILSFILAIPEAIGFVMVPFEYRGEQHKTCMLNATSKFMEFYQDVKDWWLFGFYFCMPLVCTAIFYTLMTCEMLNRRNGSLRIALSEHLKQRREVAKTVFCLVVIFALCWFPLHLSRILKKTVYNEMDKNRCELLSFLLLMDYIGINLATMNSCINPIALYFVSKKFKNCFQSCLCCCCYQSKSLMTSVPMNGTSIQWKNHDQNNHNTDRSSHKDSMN

[2] = target: T2, Endothelin receptor type B (Homo sapiens, UniProt P24530); experiment: Displacement of [125I]endothelin-1 from human recombinant ETB receptor expressed in CHO cells
T2 sequence (P24530 whole entry): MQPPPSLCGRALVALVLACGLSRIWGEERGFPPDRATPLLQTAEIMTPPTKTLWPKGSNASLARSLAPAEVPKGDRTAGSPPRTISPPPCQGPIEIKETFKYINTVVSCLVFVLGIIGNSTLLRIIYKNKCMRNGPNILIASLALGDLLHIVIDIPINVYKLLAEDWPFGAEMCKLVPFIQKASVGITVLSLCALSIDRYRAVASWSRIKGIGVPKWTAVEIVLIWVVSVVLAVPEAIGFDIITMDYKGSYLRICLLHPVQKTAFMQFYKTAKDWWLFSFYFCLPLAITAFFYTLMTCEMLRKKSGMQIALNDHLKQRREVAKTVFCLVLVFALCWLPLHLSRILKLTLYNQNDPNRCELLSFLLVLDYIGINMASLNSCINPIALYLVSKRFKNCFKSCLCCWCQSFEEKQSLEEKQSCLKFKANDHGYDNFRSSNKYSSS

[3] = target: T3, Endothelin-1 receptor (Homo sapiens) (UniProt P25101); experiment: Activity at human recombinant ETA receptor expressed in CHO cells assessed as inhibition of endothelin-1-induced increase in extracellular acidification rate at 20 uM by microphysiometry
T3 sequence (whole entry): T1 sequence (P25101 whole entry)

[4] = target: T4, Endothelin-1 receptor (Rattus norvegicus, UniProt P26684); experiment: Displacement of [125I]endothelin-1 from ETA receptor in rat A10 cells by scintillation counting
T4 sequence (P26684 whole entry): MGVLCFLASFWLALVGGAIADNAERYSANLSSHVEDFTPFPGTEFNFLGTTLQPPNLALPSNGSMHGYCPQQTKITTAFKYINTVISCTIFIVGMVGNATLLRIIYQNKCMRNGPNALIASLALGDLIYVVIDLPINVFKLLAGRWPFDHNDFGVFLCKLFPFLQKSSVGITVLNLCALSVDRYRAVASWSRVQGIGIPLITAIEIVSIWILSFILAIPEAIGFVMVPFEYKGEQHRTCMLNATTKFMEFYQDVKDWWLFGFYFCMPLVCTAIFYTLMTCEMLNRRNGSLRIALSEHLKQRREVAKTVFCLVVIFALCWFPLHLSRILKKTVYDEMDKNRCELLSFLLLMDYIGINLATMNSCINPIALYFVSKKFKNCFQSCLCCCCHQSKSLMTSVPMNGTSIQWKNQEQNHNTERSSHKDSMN

[5] = target: T5, Endothelin receptor type B (Homo sapiens) (UniProt P24530); experiment: Activity at human recombinant ETB receptor expressed in CHO cells assessed as inhibition of endothelin-1-induced increase in extracellular acidification rate at 100 uM by microphysiometry
T5 sequence (whole entry): T2 sequence (P24530 whole entry)

[6] = target: T5, Endothelin receptor type B (Homo sapiens); experiment: Activity at human recombinant ETB receptor expressed in CHO cells assessed as inhibition of endothelin-1-induced increase in extracellular acidification rate at 20 uM by microphysiometry
[7] = target: T3, Endothelin-1 receptor (Homo sapiens); experiment: Activity at human recombinant ETA receptor expressed in CHO cells assessed as inhibition of endothelin-1-induced increase in extracellular acidification rate at 100 uM by microphysiometry

Compound | IC50 [1] | IC50 [2] | inhibition [3] | IC50 [4] | Activity [5] | Activity [6] | inhibition [7]
COc1cc(C)c(OC)c2c1C[C@@H](C(=O)O)C[C@H]2c1ccccc1 | 160 µM |  |  |  |  |  | 
COC[C@@H]1Cc2cc(OC)c3c(c2[C@H](c2ccc(OC)c(OC)c2)[C@H]1COC)OCO3 [HYPOPHYLLANTHIN] | 40 µM | > 500 µM | 28% | 580 µM | inactive | inactive | 39%
COC[C@@H]1Cc2cc3c(c(OC)c2[C@H](c2ccc(OC)c(OC)c2)[C@H]1COC)OCO3 [NIRTETRALIN] | 75 µM | > 500 µM |  | 400 µM |  |  | 
COC[C@H](Cc1ccc(OC)c(OC)c1)[C@H](COC)Cc1ccc(OC)c(OC)c1 [PHYLLANTHIN] | > 1000 µM | > 500 µM |  | > 1000 µM |  |  | 
